Measurements: patent US20220204479A1, “PYRIMIDINE COMPOUND AND PREPARATION METHOD THEREFOR” (Wuhan Humanwell Innovative Drug Research And Development …, priority 2019, published 2022)
Values after ≈ are worked out from the molar mass of the structure shown. Where two headings read alike, the source gives them in different places.

Tests used:
ATX enzyme in rat plasma = target: T1, ATX enzyme in rat plasma (Rattus norvegicus, UniProt Q64610); assay: Inhibition of activity of ATX enzyme in rat plasma (LPA18:2 formation, LC-MSMS); format: biochemical; settings: for inhibitory activity on ATX enzyme in rat plasma compared with control compounds 1 and 2: comparison in words
T1 construct: Whole blood was collected from rats and anticoagulated with heparin; from tissue; host or cells: rat plasma (heparin)
Description: Whole blood was collected from rats and anticoagulated with heparin. The blood collection tubes were centrifuged at 3,000 rpm for 15 min, and the plasma was placed on ice for use.
The compound was serially diluted with DMSO: 30% ACN=1:19 according to the conventional concentration requirements, and then placed on ice. 147 μL of plasma, which was placed on ice, was added to a 96-well plate, and then 3 μL of each of the gradient solutions of the compound (finally 1[…] DMSO) was added. A group containing none of the compounds was set as the positive group. The 96-well plate was mixed uniformly, and incubated at 37° C. for 3 h. In addition, a blank group was also provided. At the beginning of the incubation, the plasma of blank group was added to with excessive acetonitrile containing the internal standard LPA17: 0 to precipitate the plasma protein, vortexed to mix, and stored at 4° C. The blank group was provided to determine the baseline concentration of endogenous LPA.
A peak area of LPA18: 2 and a peak area of internal standard LPA17: 0 were detected using LC-MSMS mass spectrometry.
(§1) A ratio of the peak area of LPA18: 2 to the peak area of internal standard LPA17: 0 was calculated, and a formation inhibition rate of LPA18: 2 was calculated according to the following formula:
(§2) Inhibition rate (%)=100−(compound group with different concentrations−blank group)/(positive group−blank group)*100
According to the inhibition rates of different concentrations of the compound, the IC50 value of the compound for inhibiting activity of ATX enzyme in rat plasma, was calculated.

[1] = Pharmacokinetic test in rats; format: in vivo; settings: male SD rats, oral gavage 10 mg/kg
Description: (§3) For the pharmacokinetic test of rats, 3 male SD rats (180-240 g) were used, and fasted overnight. The rats were orally administered by gavage (10 mg/kg). […] The blood samples were centrifuged at 8,000 rpm at 4° C. for 6 min, and plasma was collected and stored at −20° C. The plasma at each time point was taken and added with an acetonitrile solution containing internal standard in 3 to 5 times the amount, vortexed and mixed for 1 min, and centrifuged at 13,000 rpm at 4° C. for 10 min. The supernatant was collected, added with water in 3 times the amount, and mixed. An appropriate amount of the mixture was taken for LC-MS/MS analysis. The main pharmacokinetic parameters were analyzed using WinNonlin 7.0 software with non-compartmental model.

[2] = Pharmacokinetic test in mice; format: in vivo; settings: mouse, plasma; male CD-1 mice, oral gavage 10 mg/kg
Description: as §3, with “mice,” for “rats, 3”, “CD-1 mice (20 g to 25” for “SD rats (180-240”, “mice” for “rats”

[3] = Pharmacokinetic test in canines; format: in vivo; settings: dog, plasma; male beagle dogs, oral gavage 5 mg/kg
Description: as §3
For the pharmacokinetics test of canines, 3 male beagle dogs (8 to 10 kg) were used, and fasted overnight. The dogs were orally administered by gavage (5 mg/kg). The rest of the operation is the same as the pharmacokinetic test in rats.

[4] = Thermodynamic solubility test; format: physicochemical; settings: thermodynamic from solid
Description: The compound was accurately weighed, and the prepared phosphate buffer (pH 7.4), FeSSIF solution (pH 5.8) and FaSSGF solution (pH 1.6) were added to prepare a solution with a concentration of 4 mg/mL, which was shaken at 1,000 rpm for 1 hour, and then incubated overnight at room temperature. After the incubation, the solution was centrifuged at 12,000 rpm for 10 min to remove undissolved particles, and the supernatant was transferred to a new centrifuge tube. The supernatant was diluted appropriately, then added with an acetonitrile solution containing the internal standard, and quantified using a standard curve prepared with the same matrix.

[5] = target: T2, hERG channels (CHO cell line stably expressing hERG) (Homo sapiens, UniProt Q12809); assay: cell-based
Description: (§4) Full-automatic electrophysiological patch clamp QPatch was used to detect the inhibitory effect of compounds on hERG. Cells used in this test were CHO cell line transfected with cDNA of hERG and stably expressing hERG channels (provided by Sophion Bioscience, Denmark), and the cell passage number was P24. The cells were cultured in a medium containing the following components (all purchased from Invitrogen): Ham's F12 medium, inactivated fetal bovine serum (10% (v/v)), hygromycin B (100 μg/ml), and Geneticin (100 μg/ml). CHO hERG cells were grown in a petri dish containing the above-mentioned medium and cultured in an incubator at 37° C. and containing 5% CO2.
(§5) The test compound was prepared into a 10 mM stock solution in DMSO solvent, the compound was diluted to 3 mM, 1 mM, 0.3 mM, and 0.1 mM with DMSO, and then the compound was diluted to 30 μM, 10 μM, 3 μM, 1 μM, 0.3 μM and 0.1 μM with the extracellular fluid, so that except that the final concentration of DMSO in the 30 μM compound was 0.3%, the final concentration of DMSO in compound solutions of all other concentrations was 0.10%.
(§6) The CHO hERG cells, after being digested and resuspended, were added to the full-automatic QPatch system (Sophion, Denmark), and subjected to a test according to the following preset procedure.
(§7) After reaching the ruptured whole cell configuration state in the initial stage, the whole cell current was recorded at room temperature (about 25° C.) for at least 120 seconds in order to achieve stability. The stable cells were selected for the test. During the whole test, the cells were clamped at a voltage of −80 mV, the cell clamp voltage was depolarized to +20 mV to activate the hERG potassium channels, and after 2.5 seconds, the cell clamp voltage was at −50 mV to eliminate inactivation and generate outward tail current. The peak tail current was used as the value of the hERG current. The voltage mode described above was applied to the cells for electrophysiological test every 15 seconds. An intracellular liquid containing 0.1% dimethyl sulfoxide (solvent) was added to the cells to establish a baseline, and then the current was allowed to stabilize for 3 min. After the compound solution was added, the cells were kept in the test environment until the effect of the compound reached a steady state or until reaching 4 min. In the test experiments with different concentration gradients of the compound, the compound was added from low to high concentration to the clamped cells. After the compound test was finished, the cells were washed with the extracellular fluid until the current returned to a stable state. The test data was analyzed by Qpatch analysis software provided by Sophion, Excel, and Graphpad Prism, etc.

[6] = Human liver microsome stability test; settings: for Remaining percentage (%) of compound after incubation for 30 min: NADPH, 37° C.; for half-life at 1 µM: human
Description: The human liver microsome stability test was performed by incubating the compound and human liver microsomes in vitro for detection. First, the test compound was prepared into a 10 mM stock solution in DMSO solvent, and then the compound was diluted to 0.5 mM with acetonitrile. Human liver microsomes (Corning) were diluted with PBS and prepared as a microsome/buffer solution, which was used to dilute the 0.5 mM compound solution into a working solution. […] A deep-well multi-well plate was taken, 30 μL of the working solution and 15 μL of pre-warmed NADPH solution (6 mM) were sequentially added to each well to initiate a reaction, and the reaction was incubated at 37° C. […] After centrifugation, the supernatant was collected, and added with purified water in a ratio of 1:1 to perform LC-MS/MS detection. […] T1/2 was calculated by using Excel.

autotaxin (ATX) enzyme = target: T3, autotaxin (ATX) enzyme (Homo sapiens, UniProt Q13822); assay: Autotaxin (ATX) enzyme activity inhibition test (Cayman Autotaxin Inhibitor Screening Assay Kit); format: biochemical; settings: 37° C., 30 min, OD405, read-out: IC50, inhibitory effect on ATX enzyme activity
T3 construct: purchased Cayman 700580
Description: The inhibitory effects of the compounds on the autotaxin enzyme were detected using the Autotaxin Inhibitor Screening Assay Kit (Cayman, 700580). […] Subsequently, the 8 concentrations were diluted with Autotaxin Assay buffer (1×) provided in the kit into 19× compound working solutions (DMSO content was 1.9%). The Autotaxin Assay Reagent (10×) was taken out and diluted by 10 times with Autotaxin Assay Buffer (1×). The Autotaxin Substrate was taken out, dissolved by adding 1.2 mL of Autotaxin Assay Buffer (1×), mixed evenly and let stand by at room temperature. In a 96-well plate, 150 μL of Autotaxin Assay Buffer (1×), 10 μL of the prepared and diluted 19× compound working solution, 10 μL of Autotaxin Assay Reagent (1×), and 20 μL of the dissolved Autotaxin Substrate were added to each of the wells for each concentration, and homogenously mixed. The 96-well plate was shaken in a constant temperature shaker at 37° C. and incubated in the dark for 30 min, and then the plate was taken out and placed on a microplate reader to read OD405.

[7] = target: T4, ATX enzyme in human plasma (Homo sapiens, UniProt Q13822); assay: Inhibition of activity of ATX enzyme in human plasma (LPA18:2 formation, LC-MSMS); format: biochemical; settings: for inhibitory effect on ATX enzyme in human plasma compared with control compounds 1 and 2: comparison in words; for IC50: human plasma, 37° C., 3 h, LPA18:2 formation, read-out: IC50, inhibitory effect on activity of ATX enzyme in human plasma
T4 construct: Whole blood was collected from healthy volunteers and anticoagulated with heparin; from tissue; host or cells: human plasma (heparin) from healthy volunteers
Description: Whole blood was collected from healthy volunteers and anticoagulated with heparin. The blood collection tubes were centrifuged at 3,000 rpm for 10 min, and the plasma was taken and stored at −80° C. for use.
The compound was serially diluted with DMSO according to the conventional concentration requirements, then 3 μL of each of the diluted compound solutions was added to a 96-well plate, and 147 μL of PBS was added to each well containing 3 μL of the compound solution. After mixing homogenously, 50 μL of the mixture was taken out and added to a new 96-well plate. The human plasma was taken out from the −80° C. refrigerator and thawed through rapid shaking in a 37° C. water bath. 50 μL of the human plasma was taken and added to the 96-well plate containing 50 μL of the diluted compound (the final system contained 1% DMSO). The group without the compound was set as the positive group. The 96-well plate was shaken and mixed uniformly, and incubated at 37° C. for 3 h. A blank group was also provided, and the plasma of the blank group was stored at −80° C. The blank group is provided to determine the baseline concentration of endogenous LPA.
After the incubation was finished, the blank group was thawed on ice and transferred to an incubation plate. Excess acetonitrile containing the internal standard LPA17: 0 was added to the incubation plate to precipitate the plasma protein. After vortex centrifugation, the supernatant was taken and diluted, and a peak area of LPA18: 2 and a peak area of internal standard LPA17: 0 were detected using LC-MSMS mass spectrometry.
as §1, §2
According to the inhibition rates of different concentrations of the compound, the IC50 value of the compound for inhibiting activity of ATX enzyme in human plasma was calculated.

[8] = target: T2, hERG channels (CHO cell line stably expressing hERG); assay: Inhibitory effect on hERG by full-automatic electrophysiological patch clamp QPatch; settings: hERG IC50 (μM) divided by ATX enzyme IC50 (nM)
Description: as §4, §5, §6, §7

[9] = rat plasma, 37° C., 3 h, LPA18:2 formation, read-out: IC50, inhibitory effect on activity of ATX enzyme in rat plasma

T2 sequence (Q12809 whole entry): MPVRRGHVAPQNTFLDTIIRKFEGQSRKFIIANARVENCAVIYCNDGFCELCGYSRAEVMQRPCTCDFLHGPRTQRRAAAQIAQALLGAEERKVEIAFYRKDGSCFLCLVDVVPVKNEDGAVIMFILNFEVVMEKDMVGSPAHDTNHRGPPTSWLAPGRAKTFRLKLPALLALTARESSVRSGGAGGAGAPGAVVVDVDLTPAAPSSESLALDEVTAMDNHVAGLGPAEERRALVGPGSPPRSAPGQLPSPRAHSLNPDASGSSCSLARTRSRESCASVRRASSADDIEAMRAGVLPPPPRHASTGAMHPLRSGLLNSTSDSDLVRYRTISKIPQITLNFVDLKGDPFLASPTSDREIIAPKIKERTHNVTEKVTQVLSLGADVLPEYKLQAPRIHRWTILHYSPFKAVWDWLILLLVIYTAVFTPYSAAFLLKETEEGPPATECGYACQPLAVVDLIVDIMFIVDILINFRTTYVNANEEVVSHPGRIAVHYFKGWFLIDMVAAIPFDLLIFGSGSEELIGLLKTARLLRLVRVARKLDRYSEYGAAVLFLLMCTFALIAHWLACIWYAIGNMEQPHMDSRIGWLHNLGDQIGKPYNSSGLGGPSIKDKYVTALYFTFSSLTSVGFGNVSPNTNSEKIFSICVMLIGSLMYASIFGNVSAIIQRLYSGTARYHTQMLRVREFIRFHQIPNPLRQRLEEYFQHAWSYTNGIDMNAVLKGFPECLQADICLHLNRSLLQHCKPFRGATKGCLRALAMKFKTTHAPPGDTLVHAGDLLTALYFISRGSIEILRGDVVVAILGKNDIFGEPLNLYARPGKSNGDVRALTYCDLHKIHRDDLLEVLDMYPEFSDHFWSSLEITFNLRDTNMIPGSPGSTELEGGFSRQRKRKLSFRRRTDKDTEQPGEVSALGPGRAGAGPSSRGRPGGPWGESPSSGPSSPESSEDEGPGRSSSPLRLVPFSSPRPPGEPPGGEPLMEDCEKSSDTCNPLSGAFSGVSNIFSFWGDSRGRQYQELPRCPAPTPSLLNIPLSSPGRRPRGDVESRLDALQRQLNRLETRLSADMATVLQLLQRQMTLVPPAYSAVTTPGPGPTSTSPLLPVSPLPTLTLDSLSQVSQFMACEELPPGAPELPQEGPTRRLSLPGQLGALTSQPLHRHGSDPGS

SMILES | Tmax ([1]; Sprague-Dawley, rat, plasma) [min] | AUC(0-t) [2] [ng·h/mL] | Cmax [2] [ng/mL] | Tmax [2] [min] | AUC(0-t) [3] [ng·h/mL] | Cmax [3] [ng/mL] | Tmax [3] [min] | IC50 [5] [nM] | Remaining percentage (%) of compound after incubation for 30 min ([6]; human liver microsomes) [%] | half-life at 1 µM ([6]; microsomes) [min] | IC50 (autotaxin (ATX) enzyme) [nM] | inhibitory effect on ATX enzyme in human plasma compared with control compounds 1 and 2 [7] | IC50 [7] [nM] | inhibitory activity on ATX enzyme in rat plasma compared with control compounds 1 and 2 (ATX enzyme in rat plasma) | IC50 (ATX enzyme in rat plasma; [9]) [nM] | hERG IC50/ATX IC50 [8] | further results
O=C(COCCc1cnn[nH]1)N1Cc2cnc(NC3Cc4ccccc4C3)nc2C1 [Control compound 1, reference compound] | 25.2 | 2570 | 1500 | 15 | 10100 | 2390 | 60 | 6690 | 41.2 | 24.1 | – | – | – | – | – | – | IC50 (ATX enzyme in rat plasma): 13.6 nM; AUC(0-t) [1]: 4874 ng·h/mL; Cmax [1]: 2591 ng/mL; solubility ([4]; FaSSGF solution, fassgf or other biorelevant, FaSSGF pH 1.6, overnight at room temperature, read-out: Solubility, FaSSGF (pH 1.6)): 66.5 µg/mL (≈ 164 µM); solubility ([4]; FeSSIF solution, FeSSIF pH 5.8, overnight at room temperature, read-out: Solubility, FeSSIF (pH 5.8)): 18.3 µg/mL (≈ 45.1 µM); solubility ([4]; phosphate buffer (PBS), aqueous buffer, PBS pH 7.4, overnight at room temperature, read-out: Solubility, PBS (pH 7.4)): 6.3 µg/mL (≈ 15.5 µM)
O=C(c1cnc(NC2Cc3ccccc3C2)nc1)N1CCC(COCc2cn[nH]n2)CC1 [Compound I-1, (4-(((2H-1,2,3-triazol-4-yl)methoxy)methyl)piperidin-1-yl)(2-((2,3-dihydro-1H-inden-2-yl)amino)pyrimidin-5-yl)methanone] | 30 | 2390 | 1860 | 25.2 | 17600 | 3670 | 70.2 | 7930 | 85.6 | – | 2.05 | higher inhibitory effect on ATX enzyme in human plasma than the control compounds 1 and 2 | 8.73 | higher inhibitory activity on ATX enzyme in rat plasma than the control compounds 1 and 2 | 6.49 | 7.93/2.05 = 3.87 | AUC(0-t) ([1]; Sprague-Dawley, rat, plasma, read-out: AUC0-t): 5720 ng·h/mL; Cmax ([1]; Sprague-Dawley, rat, plasma, read-out: Cmax): 3180 ng/mL; half-life at 1 µM ([6]; human liver microsomes): 99 min
O=C(c1cnc(NC2Cc3ccccc3C2)nc1)N1CC2(CC(OCc3c[nH]nn3)C2)C1 [Compound I-9, (6-((1H-1,2,3-triazol-4-yl)methoxy)-2-azaspiro[3.3]heptan-2-yl)(2-((2,3-dihydro-1H-inden-2-yl)amino)pyrimidin-5-yl)methanone] | – | 4590 | 3870 | 19.8 | 9410 | 2090 | 70.2 | 13400 | 95.5 | 242 | 1.43 | higher inhibitory effect on ATX enzyme in human plasma than the control compounds 1 and 2 | 2.74 | higher inhibitory activity on ATX enzyme in rat plasma than the control compounds 1 and 2 | 2.83 | 13.4/1.43 = 9.37 | Tmax ([1]; Sprague-Dawley, rat, in vivo): 25.2 min; AUC(0-t) ([1]; Sprague-Dawley, rat, in vivo, read-out: AUC0-t): 1410 ng·h/mL; Cmax ([1]; Sprague-Dawley, rat, in vivo, read-out: Cmax): 973 ng/mL
